Results taken from article PMC2978510 (Bioorganic & medicinal chemistry, 2010).

What was measured:
[1] = system: CB1 receptor; details: Merck Frosst group; ref [29]; cited from earlier work
[2] = target: CB2 receptor; details: cited from earlier work; for Ki: read-out: Affinity for the CB2 receptor, Merck Frosst group, ref [29]
[3] = target: T1, CB2 receptor (Homo sapiens, UniProt P34972); assay: GTPγS binding in CHO cells stably expressing the human CB2 receptor; assay type: biochemical; details: for Efficacy at the CB2 receptor: GTPγS binding, relative to CP-55,940
T1 sequence (P34972 whole entry): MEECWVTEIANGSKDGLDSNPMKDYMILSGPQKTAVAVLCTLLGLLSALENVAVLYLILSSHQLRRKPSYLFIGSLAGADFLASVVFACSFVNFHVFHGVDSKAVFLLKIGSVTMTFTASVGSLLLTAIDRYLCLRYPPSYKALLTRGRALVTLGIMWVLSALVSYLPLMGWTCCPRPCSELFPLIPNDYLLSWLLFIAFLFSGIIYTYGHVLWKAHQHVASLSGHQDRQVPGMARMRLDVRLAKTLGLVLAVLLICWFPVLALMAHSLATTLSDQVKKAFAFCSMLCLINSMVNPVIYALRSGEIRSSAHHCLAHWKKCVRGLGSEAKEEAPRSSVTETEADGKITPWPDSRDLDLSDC

[4] = target: CB1 receptor (Rattus norvegicus, UniProt P20272); details: read-out: Ki (nM) CB1; mean ± SEM; ref [31]; cited from earlier work
Sequence of CB1 receptor (Rattus norvegicus, UniProt P20272) (P20272 whole entry): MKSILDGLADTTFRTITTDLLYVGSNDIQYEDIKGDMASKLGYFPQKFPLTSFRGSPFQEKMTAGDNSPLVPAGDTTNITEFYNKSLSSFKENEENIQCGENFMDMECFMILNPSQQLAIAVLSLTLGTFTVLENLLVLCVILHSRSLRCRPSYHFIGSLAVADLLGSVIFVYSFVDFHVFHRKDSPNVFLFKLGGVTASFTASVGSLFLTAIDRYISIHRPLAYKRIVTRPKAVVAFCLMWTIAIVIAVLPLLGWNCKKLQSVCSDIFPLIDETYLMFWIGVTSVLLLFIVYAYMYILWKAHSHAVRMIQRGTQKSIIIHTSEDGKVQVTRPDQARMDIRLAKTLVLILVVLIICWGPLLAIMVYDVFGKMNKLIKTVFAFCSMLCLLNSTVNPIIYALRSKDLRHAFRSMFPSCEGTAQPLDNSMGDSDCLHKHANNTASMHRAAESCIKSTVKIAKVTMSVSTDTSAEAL

[5] = target: T1, CB2 receptor; details: ref [31], cited from earlier work
[6] = mouse; ref [28]; cited from earlier work

## CCCCCCC(C)(C)c1cc(OC)c2c(c1)OC(C)(C)C1CC=C(C)CC21 (stereo not shown) [Compound 4, 1-methoxy-Δ^8-THC-DMH]
[1]
  Affinity for the CB1 receptor: negligible affinity
[2]
  Ki: ~0.02 µM

## C=C1CCC2C(C1)c1c(OC)cc(C(C)(C)CCCCCC)cc1OC2(C)C (stereo not shown) [Compound 5, 1-methoxy-Δ^9(11)-THC-DMH]
[1]
  Affinity for the CB1 receptor: negligible affinity
[2]
  Ki: ~0.02 µM

## CCCCCC(C)(C)c1cc(Br)c2c(c1)OC(C)(C)[C@@H]1CC=C(C)C[C@@H]21 [JWH-393, 1-Bromo-1-deoxy-3-(1′,1′-dimethylhexyl)-Δ^8-tetrahydrocannabinol]
[3]
  Efficacy at the CB2 receptor: full agonists
[3]; read-out: Emax (% CP-55940), percent relative to 3 μM CP-55,940, mean ± SEM
  Emax: 98.3 ± 6.8%

## CCCCCCC(C)(C)c1cc(Br)c2c(c1)OC(C)(C)[C@@H]1CC=C(C)C[C@@H]21 [JWH-383, 1-Bromo-1-deoxy-3-(1′,1′-dimethylheptyl)-Δ^8-tetrahydrocannabinol]
[3]
  Efficacy at the CB2 receptor: full agonists

## CCCC(C)(C)c1cc(OC)c2c(c1)OC(C)(C)[C@@H]1CC=C(C)C[C@@H]21 [JWH-214]
[4]
  Ki: > 10000 nM
[5]; read-out: Ki (nM) CB2, mean ± SEM
  Ki: 325 ± 70 nM

## CCCCCCC(C)(C)c1ccc2c(c1)OC(C)(C)[C@@H]1CC=C(CO)C[C@@H]21 [Compound 2, 11-hydroxy-3-(1′,1′-dimethylheptyl)-1-deoxy-Δ^8-THC]
[6]
  Potency in vivo: potent cannabinoid in vivo in the mouse

## CCCCCCC(C)(C)c1ccc2c(c1)OC(C)(C)[C@@H]1CC=C(C)C[C@@H]21 [Compound 3, 3-(1′,1′-dimethylheptyl)-1-deoxy-Δ^8-THC]
[6]
  Potency in vivo: potent in vivo
[2]; ref [28]
  Selectivity for the CB2 receptor: nearly ten-fold selectivity

## CCCCCCC(C)(C)c1cc(OC)c2c(c1)OC(C)(C)C1CC=C(C)CC21 (stereo not shown) [JWH-143]
[5]; 1-methoxy series
  Selectivity for the CB2 receptor: 12 fold
